# In publication PMC8573827, “Zinc protoporphyrin binding to telomerase complexes and inhibition of telomerase activity” (Pharmacology Research & Perspectives, 2021):
# Where two headings read alike, the source gives them in different places.
# Experiments:
# Huh7 cells = experiment: MTT cell proliferation/viability assay, Huh7; format: cell-based, human; settings: Huh7 vs U2OS, 72 h
# Method: MPPs were tested for effects on cell proliferation and viability using MTT (3‐(4,5‐dimethylthiazol‐2‐yl)‐2,5‐diphenyltetrazolium bromide) dye conversion assay (Cell Titer 96, Promega) as we described[22] with some modifications. Cells were plated into 96 well plates and allowed to attach overnight. MPPs were added to the cultures and then incubated for the times indicated. At assay time, MTT reagent was added and absorbance measured at 570 nm. Controls included buffer blanks containing MPP because of background absorbances reported for MPPs by us[22] and others.[23] The formula used for determination of viable cells relative to controls was: %viablecells=(abssample‐absblank)/(absconrtrol‐absblank)×100
# Taq DNA polymerase = molecular target: T1, Taq DNA polymerase (Thermus aquaticus, UniProt P19821); experiment: Taq polymerase inhibition test, MPP added after the telomerase extension step of TRAP; format: biochemical
# T1 construct: purchased Perkin‐Elmer Cetus, Norwalk, CT
# T1 sequence (P19821 whole entry): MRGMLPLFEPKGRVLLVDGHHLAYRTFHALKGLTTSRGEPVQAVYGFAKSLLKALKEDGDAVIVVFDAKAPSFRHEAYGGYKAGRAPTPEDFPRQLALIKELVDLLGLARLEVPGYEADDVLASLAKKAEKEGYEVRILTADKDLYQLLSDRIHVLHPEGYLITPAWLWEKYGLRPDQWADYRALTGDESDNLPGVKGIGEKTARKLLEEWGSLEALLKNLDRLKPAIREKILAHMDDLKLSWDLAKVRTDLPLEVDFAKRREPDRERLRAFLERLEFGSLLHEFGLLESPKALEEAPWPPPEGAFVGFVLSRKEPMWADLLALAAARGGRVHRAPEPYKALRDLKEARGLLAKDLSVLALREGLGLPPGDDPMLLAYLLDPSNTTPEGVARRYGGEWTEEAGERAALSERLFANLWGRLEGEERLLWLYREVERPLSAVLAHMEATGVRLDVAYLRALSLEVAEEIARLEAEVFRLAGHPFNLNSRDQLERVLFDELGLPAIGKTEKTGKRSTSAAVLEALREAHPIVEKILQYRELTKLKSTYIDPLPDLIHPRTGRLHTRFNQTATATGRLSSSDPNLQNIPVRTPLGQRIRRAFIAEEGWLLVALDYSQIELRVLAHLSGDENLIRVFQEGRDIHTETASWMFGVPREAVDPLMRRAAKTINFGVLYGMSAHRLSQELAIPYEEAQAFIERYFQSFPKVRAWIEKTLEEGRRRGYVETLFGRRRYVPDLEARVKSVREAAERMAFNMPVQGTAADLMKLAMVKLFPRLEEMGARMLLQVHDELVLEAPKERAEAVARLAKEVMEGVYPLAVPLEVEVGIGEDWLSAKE
# Method: (§1) For TRAP assay, a Quantitative Telomerase Detection Kit (US Biomax, Inc) was used to assay cellular lysates or TERT immunoprecipitates (IP) according to the manufacturer's directions. Relative telomerase activity was derived from a standard curve of reference samples and data were analyzed using relative fluorescence units as compared to controls. In some cases, telomerase reaction products were visualized and quantified with TRAPeze system (EMD/Millipore). After separation of the DNA products using 10% non‐denaturing PAGE and SYBR fluorescence labeling [1x SYBR safe DNA gel stain (Invitrogen)], gel bands were imaged with iBright 1500 (Invitrogen). The intensity of the sample's TRAP ladder and internal control was first measured using GelAnalyzer [GelAnalyzer 19.1 (www.gelanalyzer.com )] as recommended. Then, the relative telomerase activity was determined by the ratio of the intensity of the sample's TRAP ladder (telomerase products, TP) to that of the internal control (IC) band.
# Because of concerns that some quadruplex ligands inhibit Taq DNA polymerase in addition to telomerase, we assayed MPP inhibition at both steps of the TRAP procedure with a strategy similar to that of others.[36] Using equivalent extracts but separate assays, MPP was either included in the telomerase RT extension step or the extension step was conducted without MPP and then MPP added only for the amplification steps with Taq DNA polymerase. To avoid further potential errors introduced by Real‐time quantification, TRAP products were labeled with SYBR green, visualized on denaturing gels, and each lane was quantified by density measurements as described in the Methods. The latter step also ruled out the possibility that decreases in activity were artifactual due to fluorescence signal quenching by some MPPs.[37] […] All three MPPs had minimal effects on Taq polymerase […] and the slight inhibition of Taq polymerase seen for ZnPP was not directly concentration‐dependent.
# Enzymatic extracts were prepared from semi-confluent Huh7 cells and aliquots were assayed in triplicate using TRAP assay. CoPP was added to RT-PCR reactions either before or after the RT telomere elongation step to test whether it inhibited Taq polymerase. Visualization of amplified telomeric products was on 12% denaturing gels using SYBR fluorescence labelling (upper panels). Quantification was with densitometry as described in Methods and plot shown (lower panel). Plotted points represent the mean +/- SD with n =3. (IC)= internal Taq polymerase control.
# [1] = test system: TERT, β-catenin, and cyclin D1 expression; experiment: Western blot of proliferative proteins in Huh7 cells; format: cell-based, human; settings: Huh7, 48 h
# Method: For SDS ‐PAGE, cellular lysates, and protein preparations such as IP were dissolved in Laemmli buffer, boiled for 1 min and separated on denaturing SDS gels as described.[28] After electrophoretic transfer of separated proteins to nitrocellulose sheets, western blot immunoassays employed enhanced chemiluminescence for signal detection (ECL^TM Prime, Amersham).[28]
# telomerase [2] = molecular target: T2, telomerase (Homo sapiens, UniProt O14746); experiment: Direct α-32P-dGTP telomerase extension assay, IP eluates of HEK-293T cells overexpressing TERT, TERC and dyskerin; format: biochemical; design: purchased Abbexa Ltd (UK) Abx069991; host or cells: HEK-293T cells overexpressing TERT, TERC and dyskerin; settings: Table 2b; mean of 2–4 experiments
# Method: For direct telomerase activity assay, a modified procedure of Tomlinson et al[26] was used. Briefly, HEK‐293T cell pellet from 10^7 cells overexpressing TERT, TERC, and dyskerin was obtained from Abbexa Ltd (UK. Abx069991). The whole‐cell lysate was produced using 1ml buffer A [20 mM HEPES‐KOH buffer (pH 8), 300 mM KCl, 2 mM MgCl2, 0.1% v/v Triton X‐100, 10% v/v glycerol]. Immunoprecipitation of telomerase was performed with anti‐hTERT polyclonal sheep antibody (abx120550, Abbexa, U.K.). The telomerase was finally eluted with hTERT peptide (abx069990, Abbexa, U.K.). 10µl of eluates were mixed with different concentrations of MPP and incubated on ice for 2 h. Then the pellet‐MPP complex was added to the extension reaction mixture composed of 1x telomerase buffer, 300 mM KCl, 1 µM Bio‐L‐18GGG, 1 mM dATP, 1 mM dTTP, 10 µM dGTP, 20 µCi α‐^32P‐dGTP, 10 mM DTT, 5’ biotinylated DNA substrate (5’‐CTAGACCTGTCATCA(TTAGGG)3‐3’) and 10% glycerol. The reaction was conducted at 37 °C for 2 h. The purification of telomerase extension products employed Dynabeads M‐280 streptavidin. Five microliters of purified products were loaded on 6% sequencing gel (TBE‐UREA denaturing gel) with Model S2 Sequencing Gel Electrophoresis Apparatus (LabRepCo, Horsham, PA). […] This screen was then scanned using a STORM phosphorimager (Molecular Dynamics), and bands were quantified using GelAnalyzer as described above. […]
# Target sequence in this assay (O14746 whole entry): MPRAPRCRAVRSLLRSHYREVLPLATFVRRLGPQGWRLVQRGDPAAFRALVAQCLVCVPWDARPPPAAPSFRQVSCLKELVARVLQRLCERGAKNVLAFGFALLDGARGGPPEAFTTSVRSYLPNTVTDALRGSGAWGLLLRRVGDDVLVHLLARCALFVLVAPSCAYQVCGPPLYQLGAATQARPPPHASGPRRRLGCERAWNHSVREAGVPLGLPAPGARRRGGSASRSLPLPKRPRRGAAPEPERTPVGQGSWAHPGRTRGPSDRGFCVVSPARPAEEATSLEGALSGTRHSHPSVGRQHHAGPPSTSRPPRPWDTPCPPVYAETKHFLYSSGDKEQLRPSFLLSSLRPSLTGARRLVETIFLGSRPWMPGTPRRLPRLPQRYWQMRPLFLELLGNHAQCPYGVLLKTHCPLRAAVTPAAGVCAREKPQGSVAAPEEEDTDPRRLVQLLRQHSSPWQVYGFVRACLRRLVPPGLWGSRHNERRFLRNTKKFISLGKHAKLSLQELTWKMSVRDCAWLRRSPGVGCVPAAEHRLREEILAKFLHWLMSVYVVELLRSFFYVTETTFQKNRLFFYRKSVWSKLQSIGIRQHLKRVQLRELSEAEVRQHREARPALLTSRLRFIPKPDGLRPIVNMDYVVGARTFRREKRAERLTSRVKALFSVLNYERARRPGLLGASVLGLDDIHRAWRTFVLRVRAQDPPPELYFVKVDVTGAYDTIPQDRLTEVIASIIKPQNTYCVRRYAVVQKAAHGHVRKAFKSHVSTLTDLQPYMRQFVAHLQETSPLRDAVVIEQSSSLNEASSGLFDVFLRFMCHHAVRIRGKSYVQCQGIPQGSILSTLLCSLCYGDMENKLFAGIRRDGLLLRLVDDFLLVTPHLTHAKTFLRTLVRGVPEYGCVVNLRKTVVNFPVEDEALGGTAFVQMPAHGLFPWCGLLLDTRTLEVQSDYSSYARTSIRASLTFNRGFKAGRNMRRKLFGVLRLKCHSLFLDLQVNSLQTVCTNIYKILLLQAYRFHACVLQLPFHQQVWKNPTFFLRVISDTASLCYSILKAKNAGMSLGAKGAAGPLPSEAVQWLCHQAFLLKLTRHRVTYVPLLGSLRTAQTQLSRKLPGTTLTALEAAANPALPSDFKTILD
# Target sequence in this assay (O60832 whole entry partner): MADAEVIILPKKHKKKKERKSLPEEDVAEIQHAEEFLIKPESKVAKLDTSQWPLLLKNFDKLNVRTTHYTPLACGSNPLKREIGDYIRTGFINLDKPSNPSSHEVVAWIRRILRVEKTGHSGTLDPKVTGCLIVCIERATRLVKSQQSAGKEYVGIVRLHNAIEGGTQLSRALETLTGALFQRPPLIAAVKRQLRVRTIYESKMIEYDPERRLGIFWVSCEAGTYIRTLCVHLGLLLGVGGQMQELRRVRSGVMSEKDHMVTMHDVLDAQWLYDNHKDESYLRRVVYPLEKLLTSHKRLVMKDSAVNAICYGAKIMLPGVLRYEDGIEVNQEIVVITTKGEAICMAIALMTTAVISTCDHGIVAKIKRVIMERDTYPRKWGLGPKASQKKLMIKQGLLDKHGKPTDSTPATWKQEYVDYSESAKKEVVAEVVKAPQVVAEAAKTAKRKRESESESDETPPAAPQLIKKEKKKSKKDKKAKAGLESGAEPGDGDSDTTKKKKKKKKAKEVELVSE
# Target sequence in this assay (Q9NPE3 whole entry partner): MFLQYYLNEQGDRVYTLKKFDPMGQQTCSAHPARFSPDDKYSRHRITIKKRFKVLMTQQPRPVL
# Target sequence in this assay (Q9NX24 whole entry partner): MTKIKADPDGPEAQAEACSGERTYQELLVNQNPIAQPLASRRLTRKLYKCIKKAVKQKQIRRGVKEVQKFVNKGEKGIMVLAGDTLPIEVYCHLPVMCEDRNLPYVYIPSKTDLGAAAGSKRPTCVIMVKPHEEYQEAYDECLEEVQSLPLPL
# Target sequence in this assay (Q9NY12 whole entry partner): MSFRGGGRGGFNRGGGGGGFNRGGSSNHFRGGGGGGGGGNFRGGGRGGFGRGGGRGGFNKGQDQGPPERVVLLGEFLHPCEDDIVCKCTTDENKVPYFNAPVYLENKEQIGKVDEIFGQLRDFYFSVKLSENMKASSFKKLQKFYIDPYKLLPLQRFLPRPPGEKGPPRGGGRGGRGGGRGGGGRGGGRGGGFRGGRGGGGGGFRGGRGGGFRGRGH
# [3] = molecular target: T3, telomerase activity in Hek293 cells (Homo sapiens, UniProt O14746); experiment: Telomerase activity by TRAP after incubation of intact Hek293 cells with MPP; format: cell-based
# T3 construct: Log phase Huh7, Hek293 and Huh5.15 HCV replicon cells; endogenous in cells; host or cells: Hek293 (wild type)
# T3 sequence (O14746 whole entry): as the sequence (O14746 whole entry) above
# T3 sequence (O60832 whole entry partner): as the sequence (O60832 whole entry partner) above
# T3 sequence (Q9NPE3 whole entry partner): as the sequence (Q9NPE3 whole entry partner) above
# T3 sequence (Q9NX24 whole entry partner): as the sequence (Q9NX24 whole entry partner) above
# T3 sequence (Q9NY12 whole entry partner): as the sequence (Q9NY12 whole entry partner) above
# T3 sequence (Q9BUR4 whole entry partner): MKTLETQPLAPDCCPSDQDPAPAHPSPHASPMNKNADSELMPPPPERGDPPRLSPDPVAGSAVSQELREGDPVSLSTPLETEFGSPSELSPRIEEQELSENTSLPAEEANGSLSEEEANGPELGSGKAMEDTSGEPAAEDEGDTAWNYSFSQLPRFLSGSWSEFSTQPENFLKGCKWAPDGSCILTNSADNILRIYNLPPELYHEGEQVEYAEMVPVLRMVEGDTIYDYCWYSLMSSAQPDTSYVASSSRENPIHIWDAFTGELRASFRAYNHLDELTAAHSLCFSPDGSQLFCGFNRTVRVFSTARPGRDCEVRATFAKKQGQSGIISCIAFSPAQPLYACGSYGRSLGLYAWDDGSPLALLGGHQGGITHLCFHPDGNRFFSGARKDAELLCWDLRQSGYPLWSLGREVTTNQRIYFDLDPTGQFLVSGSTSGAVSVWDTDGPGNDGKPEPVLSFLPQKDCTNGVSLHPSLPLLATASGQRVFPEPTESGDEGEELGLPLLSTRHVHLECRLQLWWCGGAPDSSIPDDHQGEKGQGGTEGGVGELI
# Method: (§2) Telomerase reverse transcriptase (TERT) enzymatic activity was determined using Telomeric Repeat Amplification Protocol (TRAP) with Real‐time quantification as described previously,[25] or measured directly using α‐^32P‐dGTP incorporation as described[26] with modifications as below.
# as §1
# (§3) The EC50 was the extracellular concentration of MPP inhibitor calculated to result in 50% reduction of cellular telomerase activity after incubation in whole cells. Similarly, IC50 was the concentration of MPP inhibitor necessary to inhibit 50% of telomerase enzyme activity in vitro in cellular lysates. Both were calculated using GraphPad as directed and verified graphically on plots of enzyme activity vs inhibitor concentration.
# telomerase [4] = molecular target: T2, telomerase; experiment: TRAP (TRAPeze) telomerase activity assay in Huh7 cellular lysates/enzymatic extracts; format: biochemical; design: Enzymatic extracts were prepared from semi‐confluent phase Huh7 cells and aliquots were assayed in triplicate using TRAP assay; endogenous in cells; host or cells: Huh7
# Method: as §2, §1, §3
# Target sequence in this assay (O14746 whole entry): as the sequence (O14746 whole entry) above
# Target sequence in this assay (O60832 whole entry partner): as the sequence (O60832 whole entry partner) above
# Target sequence in this assay (Q9NPE3 whole entry partner): as the sequence (Q9NPE3 whole entry partner) above
# Target sequence in this assay (Q9NX24 whole entry partner): as the sequence (Q9NX24 whole entry partner) above
# Target sequence in this assay (Q9NY12 whole entry partner): as the sequence (Q9NY12 whole entry partner) above
# Target sequence in this assay (Q9BUR4 whole entry partner): as the sequence (Q9BUR4 whole entry partner) above
# [5] = molecular target: T4, telomerase activity in Huh7 cells (Homo sapiens, UniProt O14746); experiment: Telomerase activity by TRAP after incubation of intact Huh7 cells with MPP; format: cell-based
# T4 construct: Enzymatic extracts were prepared from semi‐confluent phase Huh7 cells and aliquots were assayed in triplicate using TRAP assay; endogenous in cells; host or cells: Huh7
# T4 sequence (O14746 whole entry): as the sequence (O14746 whole entry) above
# T4 sequence (O60832 whole entry partner): as the sequence (O60832 whole entry partner) above
# T4 sequence (Q9NPE3 whole entry partner): as the sequence (Q9NPE3 whole entry partner) above
# T4 sequence (Q9NX24 whole entry partner): as the sequence (Q9NX24 whole entry partner) above
# T4 sequence (Q9NY12 whole entry partner): as the sequence (Q9NY12 whole entry partner) above
# T4 sequence (Q9BUR4 whole entry partner): as the sequence (Q9BUR4 whole entry partner) above
# Method: as §2, §1, §3
# [6] = test system: high molecular weight complexes containing telomerase; experiment: Fluorescent labelling of cellular lysate complexes on non-denaturing 0.8% agarose gels; format: binding, human; settings: Huh7 lysates, fluorescence visualization
# Method: 0.8% Agarose gels were run in Tris‐Borate‐EDTA buffer using standard slab gels as described for high molecular weight complexes.[27] Cell lysates were produced by lysing Hek293 and Huh7 cells in NP40 buffer (25 mM HEPES‐KOH, 150 mM KCl, 1.5mM MgCl2, 10% glycerol, 0.5% NP40, 5 mM 2ME, pH 7.5 supplemented with protease inhibitors) for 30 min on ice. Extracts were clarified by centrifugation for 16 000 g for 10 min. The protein concentration was determined by Bradford assay. The indicated amounts of proteins were treated with different amounts of ZnPP for 2 h on ice, and then separated on 0.8% Agarose gels prepared with 0.5xTris‐Borate‐EDTA (TBE) buffer. The gels were run at 100 V for 2 h at 4 °C in 0.5x TBE buffer. […] No antibody and normal rabbit IgG (sc‐2027, Santa Cruz Biotechnology) were included as controls. The IP products were treated with ZnPP and electrophoresed as above. Free ZnPP and ZnPP bound to large complexes were visualized using a wide‐wavelength UV lightbox or with red fluorescence using excitation (EX) 608–632 nm and emission (EM) 675–720 nm. Thyroglobulin (670 kD), a heavy MW marker, was run in parallel lanes and visualized with Coomassie Blue staining or fluorescence to size the complexes. In some cases, cell lysates or IP were incubated with RNase A (Life Technologies, NY); or DNase 1 (Qiagen, CA) 100 µg/ml for 1 h at 4 °C prior to electrophoresis.
# [7] = TRAP, MPP added for the amplification steps only
# [8] = Figure 3A middle panel, 48 h, read-out: EC50 of telomerase activity in cultured Hek293 cells
# [9] = Table 2d, mean of 2–4 experiments, 48 h incubation, read-out: EC50, intact Hek293 cells [TRAP]
# [10] = Table 2a, mean of 2–4 experiments, 6 inhibitor concentrations 0–20 µM, read-out: IC50, cellular lysates [Trapeze]
# [11] = individual experiment, Figure 3B-D, gel densitometry, read-out: IC50 of telomerase activity, TRAP in Huh7 extracts
# [12] = Figure 3A upper panel, 48 h, read-out: EC50 of telomerase activity in cultured Huh7 cells
# [13] = Table 2c, mean of 2–4 experiments, 48 h incubation, read-out: EC50, intact Huh7 cells [TRAP]
Compound,"Effect on proliferation, telomerase-expressing vs telomerase negative line (Huh7 cells)",Effect on Taq polymerase (Taq DNA polymerase; [7]),"Effect on Taq polymerase (Taq DNA polymerase; concentrations of 5-10 µM, Figure S2)","Effect on expression of TERT, β-catenin and cyclin D1 (western blot) [1]",IC50 (telomerase [2]),"EC50 [3, 8]","EC50 [3, 9]",IC50 (telomerase [4]; [10]),IC50 (telomerase [4]; [11]),"EC50 [5, 12]","EC50 [5, 13]",Labelling/binding of cellular complexes on agarose gels [6]
"C/C(=C\C(=O)Nc1ccccc1C(=O)O)c1ccc2ccccc2c1 [BIBR, reference compound]",greater propensity to decrease proliferation,–,–,–,–,–,–,–,–,–,–,–
"C=CC1=C(C)c2cc3[n-]c(cc4nc(cc5[n-]c(cc1n2)c(C)c5CCC(=O)[O-])C(CCC(=O)[O-])=C4C)c(C)c3C=C.[Co+2].[H+].[H+] [CoPP, cobalt protoporphyrin]",–,clearly inhibited Taq polymerase,potent antagonist,failed to significantly alter,–,–,–,–,–,–,–,–
"C=CC1=C(C)c2cc3[n-]c(cc4[n-]c(cc5nc(cc1n2)C(C)=C5C=C)c(C)c4CCC(=O)O)c(CCC(=O)O)c3C.[Fe+2] [FePP, iron protoporphyrin (heme)]",–,minimal inhibition,–,failed to significantly alter,18.3 µM,> 10 µM,> 20 µM,> 20 µM,> 10 µM,> 10 µM,> 20 µM,–
"C=Cc1c2[n-]c(c1C)/C=c1\[n-]/c(c(C)c1C=C)=C\c1[n-]c(c(CCC(=O)O)c1C)/C=c1\[n-]c(c(C)c1CCC(=O)O)=C2.[Sn+4] [SnPP, tin protoporphyrin]",–,minimal inhibition,–,failed to significantly alter,> 20 µM,> 10 µM,> 20 µM,12 µM,> 10 µM,> 10 µM,10.8 µM,did not label a discernable cellular complex
